We go through 43 molecules from US10793576B2, “Compound used as Bruton's tyrosine kinase inhibitor and preparation method and application thereof” (Chengdu Brilliant Pharmaceutical Co., LTD., priority 2017, dated 2020).

BTK kinase, sequence (Q06187 whole entry): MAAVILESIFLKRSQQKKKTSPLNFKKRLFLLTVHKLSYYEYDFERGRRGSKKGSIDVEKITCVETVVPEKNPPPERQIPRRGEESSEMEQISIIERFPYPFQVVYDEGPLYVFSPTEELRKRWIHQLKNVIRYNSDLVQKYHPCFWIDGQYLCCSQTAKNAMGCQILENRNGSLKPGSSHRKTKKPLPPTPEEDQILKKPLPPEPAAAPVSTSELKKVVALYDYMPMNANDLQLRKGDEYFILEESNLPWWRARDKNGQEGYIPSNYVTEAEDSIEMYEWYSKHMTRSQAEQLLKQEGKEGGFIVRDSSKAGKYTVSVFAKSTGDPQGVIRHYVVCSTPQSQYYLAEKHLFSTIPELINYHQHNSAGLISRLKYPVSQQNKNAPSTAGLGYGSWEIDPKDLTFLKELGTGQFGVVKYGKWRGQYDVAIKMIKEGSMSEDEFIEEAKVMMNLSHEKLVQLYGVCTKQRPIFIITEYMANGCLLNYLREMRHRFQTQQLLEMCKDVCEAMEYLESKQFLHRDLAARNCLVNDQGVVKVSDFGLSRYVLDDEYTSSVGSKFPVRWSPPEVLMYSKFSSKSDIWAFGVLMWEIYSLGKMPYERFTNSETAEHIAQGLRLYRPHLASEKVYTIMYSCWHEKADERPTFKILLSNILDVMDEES

This experiment has as its target BTK kinase (Homo sapiens (Human), UniProt Q06187). The experiment can be described thus: In vitro assay for the inhibition of BTK kinase activity (Mobility-Shift Assay). The class given is biochemical. The source says:
Mobility-Shift Assay, which is microfluidic chip technology, applies the basic concept of capillary electrophoresis to microfluidic environments. The substrate used for the experiment is a polypeptide with a fluorescent label. Under the action of enzyme in the reaction system, the substrate is transformed into a product, and the charge the substrate carries also changes accordingly. The use of the charge difference between the substrate and the product involved in Mobility-Shift Assay achieves the separating of the two, and they are tested respectively. The test results are expressed by conversion rates.
(3) 100% DMSO was added to the positive control well and the negative control well, respectively;
As to `C=CC(=O)N1C[C@@H]2C[C@]1(c1nc(-c3ccc(C(=O)Nc4ccccn4)cc3)c3c(N)nccn13)CCO2` [Example 7], the IC50 came to 155 nM.

In the case of `CC#CC(=O)N1C[C@@H]2C[C@]1(c1nc(-c3ccc(C(=O)Nc4ccccn4)cc3)c3c(N)nccn13)CCO2` [Example 8], the IC50 was 197 nM.

In the case of `C=CC(=O)N1CC2C[C@H]1C(c1nc(-c3ccc(C(=O)Nc4ccccn4)cc3)c3c(N)nccn13)N2` (stereo partly shown) [Example 19], the IC50 was 400 nM.

For `C=CC(=O)N1CC2C[C@H]1C(c1nc(-c3ccc(C(=O)Nc4ccccn4)cc3)c3c(N)nccn13)N2C(C)=O` (stereo partly shown) [Example 20], the IC50 was found to be 372 nM.

For the molecule `CC#CC(=O)N1CC2C[C@H]1C(c1nc(-c3ccc(C(=O)Nc4ccccn4)cc3)c3c(N)nccn13)N2` (stereo partly shown) [Example 21], the half-inhibitory concentration (IC50) is 672 nM.

In the case of `C=CC(=O)N1C(c2nc(-c3ccc(C(=O)Nc4ccccn4)cc3)c3c(N)nccn23)CC2CC21` (stereo not shown) [Example 24], the IC50 was determined as 176 nM.

Consider `CC#CC(=O)N1C(c2nc(-c3ccc(C(=O)Nc4ccccn4)cc3)c3c(N)nccn23)CC2CC21` (stereo not shown) [Example 25], for which the IC50 is 342 nM.

`C=CC(=O)N1CCC2(CC1)CC(c1nc(-c3ccc(C(=O)Nc4ccccn4)cc3)c3c(N)nccn13)CO2` (stereo not shown) [Example 26]: the IC50 came out at 477 nM.

As for `CC#CC(=O)N1CCC2(CC1)CC(c1nc(-c3ccc(C(=O)Nc4ccccn4)cc3)c3c(N)nccn13)CO2` (stereo not shown) [Example 27], the IC50 worked out at 673 nM.

Regarding `C=CC(=O)NC12CC3CC(C1)CC(c1nc(-c4ccc(C(=O)Nc5ccccn5)cc4)c4c(N)nccn14)(C3)C2` [Example 28], the half-inhibitory concentration (IC50) was 124 nM.

Regarding `CC#CC(=O)NC12CC3CC(C1)CC(c1nc(-c4ccc(C(=O)Nc5ccccn5)cc4)c4c(N)nccn14)(C3)C2` [Example 29], the IC50 is 216 nM.

For `C=CC(=O)N1CCC2(CC2c2nc(-c3ccc(C(=O)Nc4ccccn4)cc3)c3c(N)nccn23)C1` (stereo not shown) [Example 30], the IC50 turned out to be 724 nM.

Turning to `CC#CC(=O)N1CCC2(CC2c2nc(-c3ccc(C(=O)Nc4ccccn4)cc3)c3c(N)nccn23)C1` (stereo not shown) [Example 31], the IC50 stood at 736 nM.

As for `CC#CC(=O)N1CCC2CC21c1nc(-c2ccc(C(=O)Nc3ccccn3)cc2)c2c(N)nccn12` (stereo not shown) [Example 33], the half-inhibitory concentration (IC50) is 94 nM.

For the molecule `C=CC(=O)N1CC2CCC2(c2nc(-c3ccc(C(=O)Nc4ccccn4)cc3)c3c(N)nccn23)C1` (stereo not shown) [Example 34], the IC50 was 66 nM.

In the case of `CC#CC(=O)N1CC2CCC2(c2nc(-c3ccc(C(=O)Nc4ccccn4)cc3)c3c(N)nccn23)C1` (stereo not shown) [Example 35], the IC50 turned out to be 67 nM.

Regarding `C=CC(=O)N1CC2(CCNCC2)CC1c1nc(-c2ccc(C(=O)Nc3ccccn3)cc2)c2c(N)nccn12` (stereo not shown) [Example 36], the IC50 came out at 93 nM.

For `CC#CC(=O)N1CC2(CCNCC2)CC1c1nc(-c2ccc(C(=O)Nc3ccccn3)cc2)c2c(N)nccn12` (stereo not shown) [Example 37], the IC50 worked out at 46 nM.

On to `C=CC(=O)N1CC2COC[C@]2(c2nc(-c3ccc(C(=O)Nc4ccccn4)cc3)c3c(N)nccn23)C1` (stereo partly shown) [Example 38], for which the IC50 was determined as 66 nM.

`CC#CC(=O)N1CC2COC[C@]2(c2nc(-c3ccc(C(=O)Nc4ccccn4)cc3)c3c(N)nccn23)C1` (stereo partly shown) [Example 39]: the IC50 was found to be 68 nM.

In the case of `CC#CC(=O)N1CC2(CC2)C[C@H]1c1nc(-c2ccc(C(=O)Nc3cc(C(F)(F)F)ccn3)cc2)c2c(N)nccn12` [Example 40, (S)-4-(8-amino-3-(5-(but-2-ynoyl)-5-azaspiro[2.4]heptan-6-yl)imidazo[1,5-a]pyrazin-1-yl 1)-N-(4-(trifluoromethyl)pyridin-2-yl)benzamide], the IC50 was 97 nM.

For `C=CC(=O)N1CC2(CC2)C[C@H]1c1nc(-c2ccc(C(=O)Nc3cc(C(F)(F)F)ccn3)cc2)c2c(N)nccn12` [Example 41, (S)-4-(3-(5-acryloyl-5-azaspiro[2.4]heptan-6-yl)-8-aminoimidazo[1,5-a]pyrazin-1-yl)-N-(4-(trifluoromethyl)pyridin-2-yl)benzamide], the IC50 worked out at 52 nM.

On to `C=CC(=O)N1C(c2nc(-c3ccc(C(=O)Nc4cc(C(F)(F)F)ccn4)cc3)c3c(N)nccn23)CC2CC21` (stereo not shown) [Example 50], for which the IC50 is 69 nM.

Regarding `CC#CC(=O)N1C(c2nc(-c3ccc(C(=O)Nc4cc(C(F)(F)F)ccn4)cc3)c3c(N)nccn23)CC2CC21` (stereo not shown) [Example 51], the 50% inhibitory concentration (IC50) is 54 nM.

For the molecule `CC#CC(=O)N1C2C[C@@H](C1c1nc(-c3ccc(C(=O)Nc4cc(C(F)(F)F)ccn4)cc3)c3c(N)nccn13)N(C(C)C)C2` (stereo partly shown) [Example 57], the half-inhibitory concentration (IC50) stood at 59 nM.

For the molecule `C=CC(=O)N1CCC2CC21c1nc(-c2ccc(C(=O)Nc3cc(C(F)(F)F)ccn3)cc2)c2c(N)nccn12` (stereo not shown) [Example 58], the IC50 worked out at 78 nM.

In the case of `CC#CC(=O)N1CCC2CC21c1nc(-c2ccc(C(=O)Nc3cc(C(F)(F)F)ccn3)cc2)c2c(N)nccn12` (stereo not shown) [Example 59], the IC50 is 97 nM.

For `C=CC(=O)N1C[C@H]2[C@@H]([C@H]1c1nc(-c3ccc(C(=O)Nc4cc(C)ccn4)cc3)c3c(N)nccn13)C2(C)C` [Example 60], the IC50 is 51 nM.

In the case of `CC#CC(=O)N1C[C@H]2[C@@H]([C@H]1c1nc(-c3ccc(C(=O)Nc4cc(C)ccn4)cc3)c3c(N)nccn13)C2(C)C` [Example 61], the IC50 turned out to be 31 nM.

Turning to `CC#CC(=O)N1C2CC[C@@H](C2)C1c1nc(-c2ccc(C(=O)Nc3cc(C)ccn3)cc2)c2c(N)nccn12` (stereo partly shown) [Example 63], the IC50 worked out at 57 nM.

As to `C=CC(=O)N1C(c2nc(-c3ccc(C(=O)Nc4cc(C)ccn4)cc3)c3c(N)nccn23)CC2CC21` (stereo not shown) [Example 64], the IC50 stood at 87 nM.

On to `CC#CC(=O)N1C(c2nc(-c3ccc(C(=O)Nc4cc(C)ccn4)cc3)c3c(N)nccn23)CC2CC21` (stereo not shown) [Example 65], for which the concentration for half-maximal inhibition (IC50) worked out at 58 nM.

Turning to `C=CC(=O)N1C2CN[C@@H](C2)C1c1nc(-c2ccc(C(=O)Nc3cc(Cl)ccn3)cc2)c2c(N)nccn12` (stereo partly shown) [Example 72], the IC50 was found to be 97 nM.

For `C=CC(=O)N1C[C@H]2[C@@H]([C@H]1c1nc(-c3ccc(C(C)(O)c4ccccc4)cc3)c3c(N)nccn13)C2(C)C` (stereo partly shown) [Example 75], the IC50 worked out at 57 nM.

Regarding `CC#CC(=O)N1C[C@H]2[C@@H]([C@H]1c1nc(-c3ccc(C(C)(O)c4ccccc4)cc3)c3c(N)nccn13)C2(C)C` (stereo partly shown) [Example 76], the 50% inhibitory concentration (IC50) stood at 46 nM.

As to `CC#CC(=O)N1CC2CCCC2C1c1nc(-c2ccc(C(C)(O)c3ccccc3)cc2)c2c(N)nccn12` (stereo not shown) [Example 78], the IC50 is 18.4 nM.

Regarding `C=CC(=O)N1C(c2nc(-c3ccc(C(C)(O)c4ccccc4)cc3)c3c(N)nccn23)CC2CC21` (stereo not shown) [Example 81], the IC50 was 178 nM.

In the case of `CC#CC(=O)N1C(c2nc(-c3ccc(C(C)(O)c4ccccc4)cc3)c3c(N)nccn23)CC2CC21` (stereo not shown) [Example 82], the IC50 was determined as 382 nM.

Consider `CC#CC(=O)N1CCC2CC21c1nc(-c2ccc(C(C)(O)c3ccccc3)cc2)c2c(N)nccn12` (stereo not shown) [Example 83], for which the 50% inhibitory concentration (IC50) amounted to 46 nM.

In the case of `C=CC(=O)N1C2C[C@@H](C1c1nc(-c3ccc(C(C)(O)c4ccccc4)cc3)c3c(N)nccn13)N(C)C2` (stereo partly shown) [Example 88], the half-inhibitory concentration (IC50) is 51 nM.

With `C=CC(=O)N1C2C[C@@H](C1c1nc(-c3ccc(C(C)(O)c4ccccc4)cc3)c3c(N)nccn13)N(C(C)=O)C2` (stereo partly shown) [Example 90], the IC50 amounted to 79 nM.

In the case of `C=CC(=O)N1C(c2nc(-c3ccc(Oc4ccccc4)cc3)c3c(N)nccn23)CC2CC21` (stereo not shown) [Example 100], the 50% inhibitory concentration (IC50) worked out at 67 nM.

With `CC#CC(=O)N1C(c2nc(-c3ccc(Oc4ccccc4)cc3)c3c(N)nccn23)CC2CC21` (stereo not shown) [Example 101], the IC50 was 77 nM.

As usually defined, the IC50 is the midpoint of a concentration-inhibition curve.
